Measurements reported in paper PMC6506615, “Internalization of Erythrocyte Acylpeptide Hydrolase Is Required for Asexual Replication of Plasmodium falciparum” (mSphere, 2019).

Target: T1, acylpeptide hydrolase (APEH) (Homo sapiens, UniProt P13798)
T1 sequence (P13798 1-732): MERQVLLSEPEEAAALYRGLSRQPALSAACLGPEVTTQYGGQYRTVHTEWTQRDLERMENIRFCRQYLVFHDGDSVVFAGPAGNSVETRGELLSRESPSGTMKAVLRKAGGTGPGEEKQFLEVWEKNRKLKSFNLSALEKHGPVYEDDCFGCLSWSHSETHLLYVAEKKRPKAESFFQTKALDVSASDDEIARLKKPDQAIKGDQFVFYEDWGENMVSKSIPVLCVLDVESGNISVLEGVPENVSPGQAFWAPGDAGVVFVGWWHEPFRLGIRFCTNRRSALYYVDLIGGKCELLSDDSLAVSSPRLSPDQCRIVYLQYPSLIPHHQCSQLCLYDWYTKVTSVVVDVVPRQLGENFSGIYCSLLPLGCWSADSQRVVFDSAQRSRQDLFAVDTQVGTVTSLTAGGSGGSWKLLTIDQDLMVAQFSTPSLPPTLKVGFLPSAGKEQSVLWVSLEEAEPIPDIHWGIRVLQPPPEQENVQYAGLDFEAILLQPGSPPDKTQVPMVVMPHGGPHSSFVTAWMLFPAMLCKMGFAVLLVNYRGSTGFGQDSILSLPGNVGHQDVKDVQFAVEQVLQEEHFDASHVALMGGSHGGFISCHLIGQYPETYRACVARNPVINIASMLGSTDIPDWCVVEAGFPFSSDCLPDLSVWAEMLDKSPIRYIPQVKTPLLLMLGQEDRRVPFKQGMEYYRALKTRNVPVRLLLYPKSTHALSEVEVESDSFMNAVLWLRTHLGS
Assay: competitive ABPP with TAMRA-FP in human erythrocyte lysate and saponin-isolated parasite lysate; also intact erythrocytes
Format: biochemical

## CC(C)CC(O)(CC(C)C)c1cnn(C(=O)N2CCCC2)n1 [AA74-1]
  IC50: 7.4 ± 2.4 nM
